Results reported in ChEMBL document CHEMBL3997854, “Discovery of Orally Efficacious Tetrahydrobenzimidazoles as TGR5 Agonists for Type 2 Diabetes” (ACS Med Chem Lett, 2017).

Tests used:
Type in all cases: ADME, organism-based
[1] = Clearance in overnight fasted C57BL/6J mouse at 5 mg/kg, iv by LC-MS/MS analysis; settings: in vivo
[2] = Plasma concentration in C57BL/6J mouse at 30 mg/kg, po measured at 2 hrs post dose by LC-MS/MS analysis
[3] = AUClast in overnight fasted C57BL/6J mouse at 20 mg/kg, po administered via gavage after 24 hrs by LC-MS/MS analysis; design: dose 20 mg/kg, time < 24 hr, route oral; settings: in vivo
[4] = Half life in overnight fasted C57BL/6J mouse at 20 mg/kg, po administered via gavage by LC-MS/MS analysis; settings: in vivo
[5] = Volume of distribution at steady state in overnight fasted C57BL/6J mouse at 5 mg/kg, iv by LC-MS/MS analysis; settings: in vivo, read-out: Vdss
[6] = Bioavailability in overnight fasted C57BL/6J mouse at 5 mg/kg, iv by LC-MS/MS analysis; settings: in vivo
[7] = Cmax in overnight fasted C57BL/6J mouse at 20 mg/kg, po administered via gavage by LC-MS/MS analysis; design: dose 20 mg/kg, route oral; settings: in vivo

Compound | clearance [1] | concentration at 2 h [2] | AUC(0-t) at 24 h [3] | half-life [4] | Vd [5] | bioavailability [6] | Cmax [7]
COc1cc(C2(C)CCCc3nc(SCc4c(F)cc(OCCOCCOCCN(C)C)cc4F)n(-c4ccc(F)cc4)c32)ccc1Cl (stereo not given) | 18.1 mL/min/kg | 1610 nM | 2540 ng·h/mL | 1.33 h | 1.63 L/kg | 13.9% | 918 ng/mL
COc1cc(C2(C)CCCc3nc(SCc4c(F)ccc(OCCOCCOCCN(C)C)c4F)n(-c4ccc(F)cc4)c32)ccc1Cl (stereo not given) | – | 760 nM | – | – | – | – | –
COc1ccc(C2(C)CCCc3nc(SCc4c(F)cc(OCCOCCOCCN(C)C)cc4F)n(-c4ccc(F)cc4)c32)cc1OC (stereo not given) | 9.68 mL/min/kg | 2210 nM | 9350 ng·h/mL | 2.1 h | 0.947 L/kg | 27.5% | 2890 ng/mL
COc1cc(C2(C)CCCc3nc(SCc4ncccn4)n(-c4ccc(F)cc4)c32)ccc1F (stereo not given) | 45.3 mL/min/kg | 280 nM | 785 ng·h/mL | – | 0.856 L/kg | 10.8% | 913 ng/mL

Next, values leading:

clearance [1] | concentration at 2 h [2] | AUC(0-t) at 24 h [3] | half-life [4] | Vd [5] | bioavailability [6] | Cmax [7] | Compound
10.2 mL/min/kg | 2110 nM | 7160 ng·h/mL | 2 h | 0.818 L/kg | 22.1% | 2410 ng/mL | COc1cc(C2(C)CCCc3nc(SCc4c(F)cc(OCCOCCOCCN(C)C)cc4F)n(-c4ccc(F)cc4)c32)ccc1F (stereo not given)
– | 100 nM | – | – | – | – | – | COc1ccc(C2(C)CCCc3nc(SCc4ncccn4)n(-c4ccc(F)cc4)c32)cc1OC (stereo not given)
58.4 mL/min/kg | 200 nM | 527 ng·h/mL | – | 1.43 L/kg | 9.44% | 507 ng/mL | COc1cc(C2(C)CCCc3nc(SCc4ncccn4)n(-c4ccc(F)cc4)c32)ccc1Cl (stereo not given)
